Measured values published in patent publication US20100173943A1, “INSECTICIDAL COMPOSITIONS WITH IMPROVED ACTION” (BAYER CROPSCIENCE AG, priority 2007, published 2010).

Key:
[1] = system: cotton aphid (Aphis gossypii); test: Aphis gossypii test (APHIGO spray treatment); format: in vivo; details: cotton leaves sprayed, 6 days; for pest or weed control at 0.8 ppm / pest or weed control at 4 ppm: Aphis gossypii, 144 h, read-out: Kill in % after 6 days a.i.; for pest or weed control at 0.8 ppm: 0.8 ppm a.i. alone; for pest or weed control at 4 ppm: 4 ppm a.i. alone
Procedure: Aphis gossypii Test (APHIGO Spray Treatment)
(§1) Solvent: 7 parts by weight of dimethylformamide
(§2) Emulsifier: 2 parts by weight of alkylaryl polyglycol ether
To prepare a ready-to-use active ingredient formulation, 1 part by weight of active ingredient is mixed with the specified amounts of solvent and emulsifier and the concentrate is diluted with emulsifier-containing water to the desired concentration. In the case that addition of ammonium salts, penetrants, or ammonium salts and penetrants is required, they are pipetted in each case into the finished preparation solution after dilution in a concentration of 1000 ppm each.
Cotton leaves (Gossypium hirsutum) highly infested by the cotton aphid (Aphis gossypii) are sprayed with an active ingredient formulation with the desired concentration.
After the desired period, the kill rate in % is determined. 100% means that all aphids have been killed; 0% means that no aphids have been killed.

[2] = system: green peach aphid (Myzus persicae); test: Myzus persicae test (MYZUPE); format: in vivo; details: pepper plants sprayed, 6 days; for pest or weed control at 0.8 ppm: 0.8 ppm a.i. alone; for pest or weed control at 4 ppm: 4 ppm a.i. alone; for pest or weed control at 20 ppm: 20 ppm a.i. alone
Procedure: Myzus persicae Test (MYZUPE)
as §1, §2
To prepare an appropriate active ingredient formulation, 1 part by weight of active ingredient is mixed with the given amounts of solvent and emulsifier, and the concentrate is diluted with emulsifier-containing water to the desired concentration. In the case that addition of ammonium salts, penetrants, or ammonium salts and penetrants is required, they are pippetted in each case into the finished preparation solution after dilution in a concentration of 1000 ppm each.
Pepper plants (Capsicum annuum) highly infested by the green peach aphid (Myzus persicaei) are treated by spraying with the active ingredient formulation in the desired concentration.
After the desired time, the kill rate in % is determined. 100% means that all animals have been killed; 0% means that no animals have been killed.

[3] = 0.8 ppm a.i. + AMS and RME 1000 ppm each
[4] = 0.8 ppm a.i. + ammonium sulphate 1000 ppm
[5] = 0.8 ppm a.i. + rapeseed oil methyl ester 1000 ppm
[6] = 4 ppm a.i. + AMS and RME 1000 ppm each
[7] = 4 ppm a.i. + ammonium sulphate 1000 ppm
[8] = 4 ppm a.i. + rapeseed oil methyl ester 1000 ppm
[9] = Myzus persicae, 144 h, read-out: Kill in % after 6 days a.i.
[10] = 20 ppm a.i. + AMS and RME 1000 ppm each
[11] = 20 ppm a.i. + ammonium sulphate 1000 ppm
[12] = 20 ppm a.i. + rapeseed oil methyl ester 1000 ppm

SMILES | Kill in % after 6 days +AMS + RME [1, 3] [%] | Kill in % after 6 days +AMS [1, 4] [%] | Kill in % after 6 days +RME [1, 5] [%] | Kill in % after 6 days +AMS + RME [1, 6] [%] | Kill in % after 6 days +AMS [1, 7] [%] | Kill in % after 6 days +RME [1, 8] [%] | pest or weed control at 0.8 ppm [1] [%] | pest or weed control at 4 ppm [1] [%] | Kill in % after 6 days +AMS + RME [2, 3] [%] | Kill in % after 6 days +AMS [2, 4] [%] | Kill in % after 6 days +RME [2, 5] [%] | pest or weed control at 0.8 ppm [2, 9] [%] | Kill in % after 6 days +AMS + RME [2, 6] [%] | Kill in % after 6 days +AMS [2, 7] [%] | Kill in % after 6 days +RME [2, 8] [%] | pest or weed control at 4 ppm [2, 9] [%] | further results
O=C1C=C(N(Cc2cnc(Cl)c(F)c2)C2CC2)CO1 [Compound I-13, 4-{[(6-chloro-5-fluoropyrid-3-yl)methyl](cyclopropyl)amino}furan-2(5H)-one] | 20 | 5 | 5 | 75 | 65 | 75 | 0 | 80 | 90 | 5 | 35 | 5 | – | – | – | – | –
O=C1C=C(N(CCF)Cc2cnc(Cl)c(Cl)c2)CO1 [Compound I-14, 4-{[(5,6-dichloropyrid-3-yl)methyl](2-fluoroethyl)amino}furan-2(5H)-one] | 70 | 5 | 40 | – | – | – | 0 | – | – | – | – | – | 95 | 60 | 95 | 25 | –
O=C1C=C(N(Cc2cnc(Br)c(F)c2)CC(F)F)CO1 [Compound I-16, 4-{[(6-bromo-5-fluoropyrid-3-yl)methyl](2,2-difluoroethyl)amino}-furan-2(5H)-one] | 5 | 10 | 10 | 90 | 95 | 98 | 0 | 80 | 10 | 0 | 10 | 5 | 100 | 99 | 98 | 95 | –
O=C1C=C(N(Cc2cnc(Cl)c(F)c2)CC(F)F)CO1 [Compound I-17, 4-{[(6-chloro-5-fluoropyrid-3-yl)methyl](2,2-difluoroethyl)amino}furan-2(5H)-one] | 40 | 20 | 40 | – | – | – | 0 | – | 25 | 5 | 35 | 0 | 100 | 99 | 100 | 95 | –
CN(Cc1ccc(Cl)nc1)C1=CC(=O)CC1 [Compound I-18, 3-{[(6-chloropyrid-3-yl)methyl](methyl)amino}cyclopent-2-en-1-one] | 90 | 50 | 75 | – | – | – | 65 | – | 70 | 0 | 98 | 25 | 100 | 95 | 100 | 80 | –
O=C1C=C(N(Cc2ccc(Cl)nc2)C2CC2)CC1 [Compound I-19, 3-{[(6-chloropyrid-3-yl)methyl](cyclopropyl)amino}cyclopent-2-en-1-one] | 50 | 0 | 40 | 80 | 40 | 85 | 0 | 15 | – | – | – | – | – | – | – | – | Kill in % after 6 days +AMS + RME [2, 10]: 100%; Kill in % after 6 days +AMS [2, 11]: 80%; Kill in % after 6 days +RME [2, 12]: 98%; pest or weed control at 20 ppm [2, 9]: 80%
CN(Cc1cccnc1)C1=CC(=O)OC1 [Compound I-21, 4-[methyl(pyrid-3-ylmethyl)amino]furan-2(5H)-one] | – | – | – | 45 | 5 | 50 | – | 10 | – | – | – | – | – | – | – | – | Kill in % after 6 days +AMS + RME ([2]; 100 ppm a.i. + AMS and RME 1000 ppm each): 65%; Kill in % after 6 days +AMS ([2]; 100 ppm a.i. + ammonium sulphate 1000 ppm): 70%; Kill in % after 6 days +RME ([2]; 100 ppm a.i. + rapeseed oil methyl ester 1000 ppm): 90%; pest or weed control at 100 ppm ([2]; Myzus persicae, 144 h, 100 ppm a.i. alone, read-out: Kill in % after 6 days a.i.): 50%
O=C1C=C(N(Cc2ccc(F)nc2)C2CC2)CO1 [Compound I-22, 4-{cyclopropyl[(6-fluoropyrid-3-yl)methyl]amino}furan-2(5H)-one] | 45 | 20 | 30 | 65 | 70 | 55 | 25 | 60 | – | – | – | – | 80 | 0 | 70 | 5 | Kill in % after 6 days +AMS + RME [2, 10]: 90%; Kill in % after 6 days +AMS [2, 11]: 80%; Kill in % after 6 days +RME [2, 12]: 85%; pest or weed control at 20 ppm [2, 9]: 65%
CN(Cc1ccc(C(F)(F)F)nc1)C1=CC(=O)OC1 [Compound I-23, 4-(methyl {[6-(trifluoromethyl)pyrid-3-yl]methyl}amino)furan-2(5H)-one] | 25 | 15 | 50 | – | – | – | 10 | – | 80 | 10 | 75 | 35 | – | – | – | – | –
